The values that follow come from PubChem BioAssay (NCI).

Assay in all cases: growth of human tumour cells (NCI), 48 h
Assay [1] has as its system MALME-3M melanoma.
The test system of assay [2] is 786-0 renal.
Assay [3] has as its system HCT-15 colon.
The subject of assay [4] is SK-MEL-28 melanoma.
Assay [5] has as its system CAKI-1 renal.
In assay [6] the test system is NCI-H23 lung.
Assay [7] has as its system CCRF-CEM leukemia.
Assay [8] relates to ACHN renal.
Assay [9] relates to MDA-N.
Assay [10] has as its system EKVX NSCLC.
For assay [11], the system named is SN12C renal.
Assay [12] has as its system HCC-2998 colon.
The subject of assay [13] is SK-MEL-2 melanoma.
Assay [14] concerns IGROV1 ovarian.
For assay [15], the system named is SW-620 colon.
In assay [16] the test system is OVCAR-8 ovarian.
Assay [17] deals with LOX IMVI melanoma.
Assay [18] deals with BT-549 breast.
Assay [19] relates to TK-10 renal.
The test system of assay [20] is SK-OV-3 ovarian.

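Five concentrations, 48 hours, 96-well plates. The concentration for full growth arrest is given as TGI.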

As to `CN1CCN(CCCCN2c3ccccc3Sc3cc(N=[N+]=[N-])ccc32)CC1`, the TGI was determined as 3.28 µM in [1]; 3.03 µM in assay [2]; 5.68 µM in [3]; 3.52 µM in [4]; 5.32 µM in [5]; 18.7 µM in assay [6]. Further, the TGI in assay [7] came out at 4.66 µM; in assay [8], 4.56 µM; in assay [9], 11.2 µM; in assay [10] it was 15.1 µM; in [11], 6.46 µM; in [12] it was 2.92 µM. The TGI in [13] was 5.04 µM; in [14], 4.26 µM; in assay [15], 3.47 µM; in assay [16], 3.85 µM; in assay [17], 3.22 µM; in assay [18], 21.9 µM. Further, the TGI was 3.43 µM in assay [19] and 22 µM in assay [20].
Take `O=C(Nc1ccc(Cl)c(Cl)c1)N1N=C2c3ccccc3CCC2C1c1ccc(Cl)cc1` (configuration not stated): the TGI in assay [1], in assay [2], in [3], in [4], in assay [5] and in assay [6] was greater than 100 µM throughout. The TGI in [7], in assay [8], in assay [9], in assay [10], in assay [11] and in assay [12] was greater than 100 µM in each case. Also, the TGI in assay [13], in [14], in assay [15], in [16], in assay [17] and in [18] was greater than 100 µM in each case. The TGI in [19] and in [20] was greater than 100 µM each time.
For `CNc1nnc(CNc2ccc(-c3nnc(NC)n3N)cc2)n1N`, the TGI in assay [2], in assay [3], in assay [4], in assay [5], in assay [6] and in [7] was greater than 100 µM throughout. Moreover, the TGI in assay [8] was greater than 100 µM; in assay [9], greater than 100 µM; in assay [10] it was greater than 100 µM; in [11], greater than 100 µM; in [12], 93.8 µM; in [13] it was greater than 100 µM. Moreover, the TGI in assay [14], in [15], in assay [16], in assay [17], in assay [18] and in assay [19] was greater than 100 µM throughout. In addition, the TGI in assay [20] was greater than 100 µM.
As to `C[C@]12CC[C@H](O)CC1=CC[C@@H]1[C@@H]2CC[C@]2(C)C(=N/O)/C(=C/c3ccc([N+](=O)[O-])cc3)C[C@@H]12`, the TGI in assay [1] worked out at 22.1 µM; in [2] it was 7.67 µM; in assay [3], 29.8 µM; in assay [4] it was 22.8 µM; in assay [5], 32.9 µM; in assay [6] it was 25.6 µM. Besides, the TGI in assay [7] was greater than 100 µM; in assay [8] it was 15.1 µM; in [9], 28.4 µM; in assay [10], 7.37 µM; in assay [11], 7.14 µM; in assay [12], 23 µM. For the same molecule, the TGI is 15.5 µM in assay [13]; 26.7 µM in assay [14]; greater than 100 µM in assay [15]; 9.75 µM in assay [16]; 21.5 µM in [17]; 26.3 µM in assay [18]. This molecule also showed a TGI in [20] of 22.5 µM.
As for `O=[N+]([O-])c1cc(Cl)cc2cc(Br)cnc12`, the TGI in assay [1], in assay [2], in [3], in assay [4], in [6] and in assay [7] was greater than 31.6 µM in each case. Also, the TGI was greater than 31.6 µM in assay [8]; greater than 31.6 µM in [9]; greater than 31.6 µM in [10]; greater than 31.6 µM in assay [11]; greater than 31.6 µM in [12]; greater than 100 µM in assay [13]. For the same molecule, the TGI is greater than 23.7 µM in [14]; greater than 31.6 µM in [15]; greater than 31.6 µM in assay [16]; greater than 31.6 µM in [17]; greater than 31.6 µM in assay [18]; greater than 31.6 µM in assay [19].
Turning to `CC(=O)N1CC(=O)N2C(=O)/C(=C/c3ccc(Cl)cc3)N=C12`, the TGI in [1], in [2], in [3], in assay [4], in assay [5] and in [6] was greater than 100 µM each time. Also, the TGI in [7], in assay [8], in assay [9], in [10], in [11] and in assay [12] was greater than 100 µM each time. Moreover, the TGI in assay [13], in assay [15], in assay [16], in assay [17], in [18] and in [19] was greater than 100 µM throughout. The molecule also gave a TGI in assay [20] greater than 100 µM.
`O=c1[nH]cnc2c1ncn2[C@@H]1C[C@H]1CO`: the TGI in [1], in [2], in [3], in assay [4], in assay [5] and in assay [6] was greater than 100 µM throughout. In addition, the TGI in assay [7], in assay [8], in assay [9], in assay [10], in assay [11] and in [12] was greater than 100 µM throughout. Further, the TGI in assay [13], in assay [14], in assay [15], in assay [16], in assay [17] and in [18] was greater than 100 µM each time. The molecule also registered a TGI in assay [19] greater than 100 µM.
For the molecule `C#CCCCOc1ncccn1`, the TGI in assay [1], in [2], in assay [4], in assay [5], in assay [6] and in assay [8] was greater than 100 µM each time. For the same molecule, the TGI in [9], in assay [10], in assay [11], in assay [12], in assay [13] and in assay [14] was greater than 100 µM in each case. Also, the TGI in assay [15], in [16], in assay [17], in [18], in assay [19] and in assay [20] was greater than 100 µM throughout.
As to `Cc1cc(-c2nc3ccc(F)cc3s2)ccc1N`, the TGI in assay [1], in assay [2], in [3], in assay [4], in assay [5] and in [6] was greater than 100 µM each time. The TGI in [7], in assay [8], in assay [9], in assay [10], in assay [11] and in assay [12] was greater than 100 µM in each case. Further, the TGI in [13], in assay [14], in [15], in [16], in [17] and in assay [18] was greater than 100 µM in each case. Besides, in assay [19], the TGI is greater than 100 µM.
For `NCCC(=O)N[C@@H](Cc1cc(O)c(O)c(SCC(NC(=O)CC[C@H](N)C(=O)O)C(=O)NCC(=O)O)c1)C(=O)O` (some centres not stated), the TGI in [1], in assay [2], in assay [3], in assay [4], in assay [5] and in assay [6] was greater than 50 µM each time. In addition, the TGI in assay [8], in assay [9], in assay [10], in assay [11], in [12] and in [13] was greater than 50 µM each time. The TGI in [14], in assay [15], in assay [18], in assay [19] and in [20] was greater than 50 µM each time.
Regarding `C[Si](C)(OCCS(=O)(=O)O)OC(=C1S(=O)(=O)OCCOS1(=O)=O)c1cccc2ccccc12`, the TGI in assay [1], in [2], in [3], in assay [4], in [5] and in assay [6] was greater than 100 µM each time. Moreover, the TGI in assay [7], in [8], in [9], in assay [10], in assay [11] and in assay [12] was greater than 100 µM each time. Besides, the TGI in assay [13], in assay [14], in assay [15], in assay [16], in assay [17] and in assay [18] was greater than 100 µM throughout. The same molecule displayed a TGI in assay [19] greater than 100 µM.
